How the values were obtained:
[1] = Inhibition of PKA assessed as residual activity at 10 uM using [33P-ATP] by radiometric filter binding assay
[2] = target: MAP kinase-activated protein kinase 3 (Homo sapiens) (UniProt Q16644); assay: Inhibition of MAPKAP-K3 assessed as residual activity at 10 uM using [33P-ATP] by radiometric filter binding assay
[3] = target: Mitogen-activated protein kinase 15 (Homo sapiens) (UniProt Q8TD08); assay: Inhibition of ERK8 assessed as residual activity at 10 uM using [33P-ATP] by radiometric filter binding assay
[4] = target: Ribosomal protein S6 kinase alpha-5 (Homo sapiens) (UniProt O75582); assay: Inhibition of MSK1 assessed as residual activity at 10 uM using [33P-ATP] by radiometric filter binding assay
[5] = target: Eukaryotic translation initiation factor 2-alpha kinase 3 (Homo sapiens) (UniProt Q9NZJ5); assay: Inhibition of EIF2AK3 assessed as residual activity at 10 uM using [33P-ATP] by radiometric filter binding assay
[6] = target: Tyrosine-protein kinase SYK (Homo sapiens) (UniProt P43405); assay: Inhibition of SYK assessed as residual activity at 10 uM using [33P-ATP] by radiometric filter binding assay
[7] = target: Ephrin type-A receptor 2 (Homo sapiens) (UniProt P29317); assay: Inhibition of EPHA2 assessed as residual activity at 10 uM using [33P-ATP] by radiometric filter binding assay
[8] = target: Tyrosine-protein kinase Lck (Homo sapiens) (UniProt P06239); assay: Inhibition of Lck assessed as residual activity at 10 uM using [33P-ATP] by radiometric filter binding assay
[9] = target: Ribosomal protein S6 kinase beta-1 (Homo sapiens) (UniProt P23443); assay: Inhibition of S6K1 assessed as residual activity at 10 uM using [33P-ATP] by radiometric filter binding assay
[10] = target: Mitogen-activated protein kinase kinase kinase 5 (Homo sapiens) (UniProt Q99683); assay: Inhibition of ASK1 assessed as residual activity at 10 uM using [33P-ATP] by radiometric filter binding assay
Mitogen-activated protein kinase kinase kinase 5 (Homo sapiens), sequence (Q99683 whole entry): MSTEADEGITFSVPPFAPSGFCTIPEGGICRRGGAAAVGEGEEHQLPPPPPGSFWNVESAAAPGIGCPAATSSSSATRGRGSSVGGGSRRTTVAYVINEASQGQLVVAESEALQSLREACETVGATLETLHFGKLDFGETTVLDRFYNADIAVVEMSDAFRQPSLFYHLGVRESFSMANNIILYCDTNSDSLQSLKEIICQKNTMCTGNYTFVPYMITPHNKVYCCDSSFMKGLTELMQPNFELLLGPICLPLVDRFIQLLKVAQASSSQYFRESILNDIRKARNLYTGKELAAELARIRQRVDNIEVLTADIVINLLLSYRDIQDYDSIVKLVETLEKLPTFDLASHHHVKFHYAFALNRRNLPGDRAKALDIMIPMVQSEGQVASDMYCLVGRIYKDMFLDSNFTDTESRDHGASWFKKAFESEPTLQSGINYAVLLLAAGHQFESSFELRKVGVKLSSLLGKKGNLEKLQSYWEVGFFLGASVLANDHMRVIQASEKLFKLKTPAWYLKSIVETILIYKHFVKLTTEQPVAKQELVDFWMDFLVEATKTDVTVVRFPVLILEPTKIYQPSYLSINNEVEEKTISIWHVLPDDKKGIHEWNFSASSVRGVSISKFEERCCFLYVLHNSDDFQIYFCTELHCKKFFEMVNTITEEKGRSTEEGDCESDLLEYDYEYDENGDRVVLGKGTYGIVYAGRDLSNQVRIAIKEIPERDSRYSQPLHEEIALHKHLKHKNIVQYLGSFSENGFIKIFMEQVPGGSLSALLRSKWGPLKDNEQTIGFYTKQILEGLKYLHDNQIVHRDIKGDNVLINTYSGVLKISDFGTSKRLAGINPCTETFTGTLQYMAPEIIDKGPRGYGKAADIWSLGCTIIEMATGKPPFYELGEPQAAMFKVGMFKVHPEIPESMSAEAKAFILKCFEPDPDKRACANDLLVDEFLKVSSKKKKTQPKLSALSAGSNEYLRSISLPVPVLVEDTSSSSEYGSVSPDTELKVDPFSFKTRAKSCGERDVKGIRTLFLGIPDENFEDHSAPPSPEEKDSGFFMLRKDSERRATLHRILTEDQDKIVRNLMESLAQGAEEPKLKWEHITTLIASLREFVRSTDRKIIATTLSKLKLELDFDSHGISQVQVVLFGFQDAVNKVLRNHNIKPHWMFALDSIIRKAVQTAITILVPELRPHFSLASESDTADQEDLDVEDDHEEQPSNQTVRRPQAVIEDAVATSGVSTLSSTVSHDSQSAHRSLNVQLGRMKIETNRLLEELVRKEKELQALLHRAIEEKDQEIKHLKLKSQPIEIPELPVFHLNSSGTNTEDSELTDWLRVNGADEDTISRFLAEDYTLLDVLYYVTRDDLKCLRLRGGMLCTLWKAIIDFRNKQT

[11] = target: Dual specificity protein kinase TTK (Homo sapiens) (UniProt P33981); assay: Inhibition of TTK assessed as residual activity at 10 uM using [33P-ATP] by radiometric filter binding assay
[12] = target: Ribosomal protein S6 kinase alpha-1 (Homo sapiens) (UniProt Q15418); assay: Inhibition of RSK1 assessed as residual activity at 10 uM using [33P-ATP] by radiometric filter binding assay
[13] = target: Mitogen-activated protein kinase 1 (Homo sapiens) (UniProt P28482); assay: Inhibition of ERK2 assessed as residual activity at 10 uM using [33P-ATP] by radiometric filter binding assay
[14] = target: Tyrosine-protein kinase JAK2 (Homo sapiens) (UniProt O60674); assay: Inhibition of JAK2 assessed as residual activity at 10 uM using [33P-ATP] by radiometric filter binding assay
[15] = target: Mitogen-activated protein kinase 14 (Homo sapiens) (UniProt Q16539); assay: Inhibition of p38alpha MAPK assessed as residual activity at 10 uM using [33P-ATP] by radiometric filter binding assay
[16] = target: Interleukin-1 receptor-associated kinase 1 (Homo sapiens) (UniProt P51617); assay: Inhibition of IRAK1 assessed as residual activity at 10 uM using [33P-ATP] by radiometric filter binding assay
[17] = target: Serine/threonine-protein kinase PAK 6 (Homo sapiens) (UniProt Q9NQU5); assay: Inhibition of PAK6 assessed as residual activity at 10 uM using [33P-ATP] by radiometric filter binding assay
Serine/threonine-protein kinase PAK 6 (Homo sapiens), sequence (Q9NQU5 whole entry, looked up): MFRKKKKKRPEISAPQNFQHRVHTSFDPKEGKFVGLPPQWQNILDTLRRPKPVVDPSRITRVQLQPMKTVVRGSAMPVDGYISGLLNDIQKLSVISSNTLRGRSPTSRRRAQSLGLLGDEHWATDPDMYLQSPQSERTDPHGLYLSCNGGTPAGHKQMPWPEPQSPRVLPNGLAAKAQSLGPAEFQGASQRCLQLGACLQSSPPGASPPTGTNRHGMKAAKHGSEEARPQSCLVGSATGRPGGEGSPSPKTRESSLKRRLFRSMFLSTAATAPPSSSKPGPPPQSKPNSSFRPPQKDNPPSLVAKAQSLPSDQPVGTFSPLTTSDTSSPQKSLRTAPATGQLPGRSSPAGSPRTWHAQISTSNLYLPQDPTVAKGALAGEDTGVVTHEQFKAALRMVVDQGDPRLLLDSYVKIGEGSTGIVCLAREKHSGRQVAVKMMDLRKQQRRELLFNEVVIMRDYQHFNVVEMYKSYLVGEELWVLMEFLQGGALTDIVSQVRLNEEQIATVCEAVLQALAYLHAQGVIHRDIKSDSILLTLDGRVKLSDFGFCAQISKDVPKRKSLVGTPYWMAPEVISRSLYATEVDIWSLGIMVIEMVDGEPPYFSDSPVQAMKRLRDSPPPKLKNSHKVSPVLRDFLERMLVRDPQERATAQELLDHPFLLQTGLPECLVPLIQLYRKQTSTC

[18] = target: Serine/threonine-protein kinase Sgk1 (Homo sapiens) (UniProt O00141); assay: Inhibition of SGK1 assessed as residual activity at 10 uM using [33P-ATP] by radiometric filter binding assay
[19] = target: Serine/threonine-protein kinase pim-3 (Homo sapiens) (UniProt Q86V86); assay: Inhibition of PIM3 assessed as residual activity at 10 uM using [33P-ATP] by radiometric filter binding assay
[20] = target: Homeodomain-interacting protein kinase 3 (Homo sapiens) (UniProt Q9H422); assay: Inhibition of HIPK3 assessed as residual activity at 10 uM using [33P-ATP] by radiometric filter binding assay
Homeodomain-interacting protein kinase 3 (Homo sapiens), sequence (Q9H422 whole entry, looked up): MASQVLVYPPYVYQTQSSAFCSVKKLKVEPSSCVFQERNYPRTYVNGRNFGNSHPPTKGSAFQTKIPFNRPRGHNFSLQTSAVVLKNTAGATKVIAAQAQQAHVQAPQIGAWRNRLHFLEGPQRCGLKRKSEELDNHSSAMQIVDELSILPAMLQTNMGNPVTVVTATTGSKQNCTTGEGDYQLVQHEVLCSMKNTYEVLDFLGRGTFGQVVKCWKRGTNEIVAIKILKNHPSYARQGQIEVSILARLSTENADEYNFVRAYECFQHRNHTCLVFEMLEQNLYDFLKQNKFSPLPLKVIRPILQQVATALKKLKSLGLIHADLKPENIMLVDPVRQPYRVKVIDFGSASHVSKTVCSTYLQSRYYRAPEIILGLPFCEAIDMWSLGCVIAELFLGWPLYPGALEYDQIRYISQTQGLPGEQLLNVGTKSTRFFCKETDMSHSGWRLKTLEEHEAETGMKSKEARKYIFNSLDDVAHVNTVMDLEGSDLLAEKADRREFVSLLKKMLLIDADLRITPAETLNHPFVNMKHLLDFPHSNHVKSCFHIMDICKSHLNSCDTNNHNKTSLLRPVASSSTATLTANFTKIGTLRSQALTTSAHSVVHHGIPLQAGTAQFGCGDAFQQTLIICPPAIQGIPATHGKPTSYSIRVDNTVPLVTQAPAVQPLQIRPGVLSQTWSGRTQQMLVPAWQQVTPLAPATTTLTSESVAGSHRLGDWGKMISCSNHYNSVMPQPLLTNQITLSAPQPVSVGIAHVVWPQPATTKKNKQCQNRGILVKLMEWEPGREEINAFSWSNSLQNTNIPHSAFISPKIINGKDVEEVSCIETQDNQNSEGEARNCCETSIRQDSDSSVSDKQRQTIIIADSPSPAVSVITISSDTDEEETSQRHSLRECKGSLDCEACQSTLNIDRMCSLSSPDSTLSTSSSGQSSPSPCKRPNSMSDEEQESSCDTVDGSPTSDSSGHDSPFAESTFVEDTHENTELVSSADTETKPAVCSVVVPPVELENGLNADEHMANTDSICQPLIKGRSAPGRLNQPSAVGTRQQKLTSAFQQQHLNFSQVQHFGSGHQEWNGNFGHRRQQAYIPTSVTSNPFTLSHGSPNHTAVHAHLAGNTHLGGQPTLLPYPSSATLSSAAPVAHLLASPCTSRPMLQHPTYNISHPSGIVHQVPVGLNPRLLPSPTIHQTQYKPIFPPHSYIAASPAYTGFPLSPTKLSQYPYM

[21] = target: Serine/threonine-protein kinase 3 (Homo sapiens) (UniProt Q13188); assay: Inhibition of MST2 assessed as residual activity at 10 uM using [33P-ATP] by radiometric filter binding assay
[22] = target: Tyrosine-protein kinase CSK (Homo sapiens) (UniProt P41240); assay: Inhibition of CSK assessed as residual activity at 10 uM using [33P-ATP] by radiometric filter binding assay
Tyrosine-protein kinase CSK (Homo sapiens), sequence (P41240 2-450 limits assumed): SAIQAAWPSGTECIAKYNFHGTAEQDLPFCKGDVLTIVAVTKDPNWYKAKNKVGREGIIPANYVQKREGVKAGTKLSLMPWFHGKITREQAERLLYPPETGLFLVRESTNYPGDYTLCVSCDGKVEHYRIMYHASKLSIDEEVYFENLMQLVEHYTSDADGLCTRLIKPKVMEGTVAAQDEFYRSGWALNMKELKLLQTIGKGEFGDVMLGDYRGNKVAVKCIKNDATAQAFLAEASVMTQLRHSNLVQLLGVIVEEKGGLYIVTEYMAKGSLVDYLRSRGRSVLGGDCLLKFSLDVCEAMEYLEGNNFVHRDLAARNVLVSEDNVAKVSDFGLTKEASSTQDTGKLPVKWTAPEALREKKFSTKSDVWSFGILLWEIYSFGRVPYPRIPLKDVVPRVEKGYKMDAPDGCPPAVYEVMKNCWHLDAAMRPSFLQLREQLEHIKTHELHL

[23] = target: Mitogen-activated protein kinase kinase kinase 9 (Homo sapiens) (UniProt P80192); assay: Inhibition of MLK1 assessed as residual activity at 10 uM using [33P-ATP] by radiometric filter binding assay
[24] = target: Mitogen-activated protein kinase 3 (Homo sapiens) (UniProt P27361); assay: Inhibition of ERK1 assessed as residual activity at 10 uM using [33P-ATP] by radiometric filter binding assay
Mitogen-activated protein kinase 3 (Homo sapiens), sequence (P27361 whole entry): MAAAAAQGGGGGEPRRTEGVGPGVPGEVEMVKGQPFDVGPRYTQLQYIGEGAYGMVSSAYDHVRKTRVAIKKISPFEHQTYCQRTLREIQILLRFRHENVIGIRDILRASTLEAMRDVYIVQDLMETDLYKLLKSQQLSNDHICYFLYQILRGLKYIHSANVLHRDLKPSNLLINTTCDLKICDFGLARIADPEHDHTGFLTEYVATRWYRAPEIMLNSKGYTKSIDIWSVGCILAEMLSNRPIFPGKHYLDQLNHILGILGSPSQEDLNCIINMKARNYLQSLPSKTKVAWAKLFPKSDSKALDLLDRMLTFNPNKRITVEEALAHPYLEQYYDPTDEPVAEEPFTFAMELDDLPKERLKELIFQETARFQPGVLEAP

Ephrin type-A receptor 4 = Ephrin type-A receptor 4 (Homo sapiens, UniProt P54764); assay: Inhibition of his-tagged EPHA4-mediated poly(Glu,Tyr) phosphorylation after 75 mins using E4:Y1 as substrate by fluorescence assay
Ephrin type-A receptor 4, sequence (P54764 whole entry): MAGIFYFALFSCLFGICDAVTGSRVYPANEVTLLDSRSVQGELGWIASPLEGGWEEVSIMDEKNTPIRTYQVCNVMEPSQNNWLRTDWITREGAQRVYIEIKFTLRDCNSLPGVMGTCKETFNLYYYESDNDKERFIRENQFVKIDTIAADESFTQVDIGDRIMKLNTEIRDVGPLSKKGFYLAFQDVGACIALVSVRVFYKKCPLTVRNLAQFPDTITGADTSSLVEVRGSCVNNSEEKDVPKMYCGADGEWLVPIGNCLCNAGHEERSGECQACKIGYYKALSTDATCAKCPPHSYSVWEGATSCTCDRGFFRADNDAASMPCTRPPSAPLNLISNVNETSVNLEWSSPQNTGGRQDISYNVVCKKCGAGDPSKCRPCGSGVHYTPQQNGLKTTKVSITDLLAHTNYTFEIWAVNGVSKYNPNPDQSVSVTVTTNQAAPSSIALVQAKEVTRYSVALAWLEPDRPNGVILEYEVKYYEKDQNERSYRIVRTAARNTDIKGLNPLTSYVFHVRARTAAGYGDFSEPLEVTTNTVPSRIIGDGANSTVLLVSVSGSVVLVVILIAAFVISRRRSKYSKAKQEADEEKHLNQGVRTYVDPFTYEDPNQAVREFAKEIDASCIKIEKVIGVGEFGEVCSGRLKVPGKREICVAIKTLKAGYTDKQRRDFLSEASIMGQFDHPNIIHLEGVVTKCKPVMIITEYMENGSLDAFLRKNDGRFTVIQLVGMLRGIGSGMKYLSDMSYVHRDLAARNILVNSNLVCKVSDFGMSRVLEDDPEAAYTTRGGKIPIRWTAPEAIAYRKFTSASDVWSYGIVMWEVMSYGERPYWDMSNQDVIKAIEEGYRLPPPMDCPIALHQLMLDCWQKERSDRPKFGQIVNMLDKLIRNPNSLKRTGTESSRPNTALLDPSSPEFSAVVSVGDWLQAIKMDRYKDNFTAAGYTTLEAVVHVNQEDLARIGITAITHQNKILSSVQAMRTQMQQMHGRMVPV

Q: Which Activity [1] does the source give for `Cc1ccc(F)cc1-c1nc2[nH]nc(N)c2c2c1CCCC2` here?
A: 93%

Q: And the Activity [2]?
A: 84%

Q: And the Activity [3]?
A: 46%

Q: What about the Activity [4] of the same compound?
A: 75%

Q: And the Activity [5]?
A: 82%

Q: What about the Activity [6] of the same compound?
A: 76%

Q: And the Activity [7]?
A: 29%

Q: And the Activity [8]?
A: 8%

Q: What about the Activity [9] of the same compound?
A: 103%

Q: What about the Activity [10] of the same compound?
A: 99%

Q: What about the Activity [11] of the same compound?
A: 81%

Q: What about the Activity [12] of the same compound?
A: 93%

Q: What about the Activity [13] of the same compound?
A: 98%

Q: What about the Activity [14] of the same compound?
A: 74%

Q: What about the Activity [15] of the same compound?
A: 54%

Q: What about the Activity [16] of the same compound?
A: 87%

Q: And the Activity [17]?
A: 103%

Q: And the Activity [18]?
A: 85%

Q: What about the Activity [19] of the same compound?
A: 82%

Q: And the Activity [20]?
A: 94%

Q: And the Activity [21]?
A: 66%

Q: What about the Activity [22] of the same compound?
A: 35%

Q: And the Activity [23]?
A: 63%

Q: What about the Activity [24] of the same compound?
A: 97%

Q: What about the IC50 (Ephrin type-A receptor 4) of the same compound?
A: 4.5 µM
